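Five concentrations, 48 hours, 96-well plates. TGI: total growth inhibition.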
Key:
Experiment in all cases: growth of human tumour cells (NCI), 48 h
RPMI-8226 leukemia = system: RPMI-8226 leukemia
IGROV1 ovarian = system: IGROV1 ovarian
RXF 393 renal = system: RXF 393 renal
K-562 leukemia = system: K-562 leukemia
SR leukemia = system: SR leukemia
NCI-H460 lung = system: NCI-H460 lung
SW-620 colon = system: SW-620 colon
A549 NSCLC = system: A549 NSCLC
KM12 colon = system: KM12 colon
SN12C renal = system: SN12C renal
UACC-62 melanoma = system: UACC-62 melanoma
MDA-MB-231 breast = system: MDA-MB-231 breast

SMILES | TGI (RPMI-8226 leukemia) [µM] | TGI (IGROV1 ovarian) [µM] | TGI (RXF 393 renal) [µM] | TGI (K-562 leukemia) [µM] | TGI (SR leukemia) [µM] | TGI (NCI-H460 lung) [µM] | TGI (SW-620 colon) [µM] | TGI (A549 NSCLC) [µM] | TGI (KM12 colon) [µM] | TGI (SN12C renal) [µM] | TGI (UACC-62 melanoma) [µM] | TGI (MDA-MB-231 breast) [µM]
COC(=O)N[C@H](C(=O)NC(OCc1ccccc1)C1COC(C)(C)O1)C(C)O[Si](C)(C)C(C)(C)C (stereo not given in full) | > 100 | > 100 | > 100 | > 100 | > 100 | > 100 | > 100 | > 100 |  |  |  | 
CCCC(=O)[O-].CCCC(=O)[O-].NCCN.NCCN.[Co+3].[O-][Cl+3]([O-])([O-])[O-] | > 100 | > 100 |  | > 100 |  | > 100 | > 100 | > 100 | > 100 | > 100 | > 100 | 
Cc1cc(C)nc(NC(P(=O)(O)O)P(=O)(O)O)n1 |  | > 100 | > 100 |  |  | > 100 |  | > 100 | > 100 |  | > 100 | > 100
C[n+]1c2ccccc2c(NC(CCCN=C(N)N)C(=O)O)c2ccccc21 (stereo not given) | > 100 | > 100 | > 100 | > 100 | > 100 | > 100 | > 100 | > 100 | > 100 | > 100 | > 100 | 
Nc1c(S(=O)(=O)c2ccccc2)c2nc3ccccc3nc2n2c1nc1ccccc12 | > 100 | 98.9 | > 100 | > 100 | > 100 | > 100 | > 100 | > 100 | > 100 | > 87.2 | > 100 | 
COc1cc(Nc2nc3cc(C(F)(F)F)ccc3nc2C(=O)O)cc(OC)c1OC |  | > 100 | 70.2 |  |  | > 100 | > 100 | > 100 | > 100 | > 100 | > 100 | 70.3
CCOC(=O)CCC1(CCC(=O)OCC)CCCCCCCCC(CCC(=O)OCC)(CCC(=O)OCC)C(=O)C1=O |  | > 100 |  | > 100 | > 100 | > 100 | > 100 | > 100 | > 100 | > 100 | > 100 | 
Cc1n[n+](Cc2ccccc2)c2sc(N)nn12 | > 100 | > 100 | > 100 | > 100 |  |  | > 100 | > 100 | > 100 | > 100 | 38.5 | 
NC1(CCNC(=O)c2ccccc2)CCN(C(=O)c2ccccc2)CC1 | > 100 | > 100 | > 100 | > 100 | > 100 | > 100 | > 100 | > 100 | > 100 | > 100 | > 100 | 
CCOC(=O)CCC(NC(=O)c1ccc(NCc2ccc3nc(-c4ccccc4)c(Cl)nc3c2)cc1)C(=O)OCC (stereo not given) | 81.2 | > 100 | > 100 | > 100 | > 100 | > 100 | > 100 | > 100 | > 100 | > 100 |  | 
COc1cccc(-c2nc(-c3cnccn3)n(C/C=C/c3ccccc3)n2)c1 |  | > 10 |  | > 10 | > 10 | > 10 | > 10 | > 10 | > 10 | > 10 | > 10 | 
Cc1ccc(NC(=O)C(=O)C2C(=O)NC(=O)NC2=O)cc1C | > 100 | > 100 | > 100 | > 100 | > 100 | > 100 | > 100 | > 100 | > 100 | > 100 | > 100 | 
CN1CCN(/C(N)=C(\C#N)C(=O)Nc2ccc(Cl)cc2)CC1 | > 100 | > 100 |  | > 100 | 95.3 | > 100 | > 100 | > 100 | > 100 | > 100 | 58.9 | 
COc1ccc(C2c3cc4c(cc3OC(N3CCOCC3)C2C)OCO4)cc1 (stereo not given) | 61.7 | > 100 | 63.3 | > 31.6 | > 76.1 | > 100 | > 100 | > 90.6 | > 100 | > 100 | > 95.6 | 
CC(=O)O[C@]12CCCCCC1C1(O)C(O)CCCCC12 (stereo not given in full) | > 100 |  | > 100 | > 100 | > 100 | > 100 | > 100 | > 100 | > 100 | > 100 | > 100 | 
COc1ccc(/C=N/N=C(\N)NO)c(OC)c1C | > 100 | > 100 | 69.8 | > 100 | > 100 | > 100 | > 100 | 44.9 | > 100 | > 100 | > 100 | 
CC1(C)OP(=O)(O)C=C1Sc1ccc([N+](=O)[O-])cc1[N+](=O)[O-] |  | > 100 |  | > 100 | > 100 | > 100 | > 100 | > 100 | > 100 | > 100 | > 100 | 
